The results in this text go back to patent US11236129B2, “IL-17A binding peptides and medical uses thereof” (Dompe' Farmaceutici S.P.A., priority 2018, dated 2022).

The assay addresses IL-17RA/IL17RC dimerization induced by IL-17A (Homo sapiens, UniProt Q16552). As to the kind of experiment: IL-17RA/IL17RC dimerization assay in response to IL-17A (PathHunter Cytokine Receptor Assay). It is filed as cell-based. The following applies: IL-17A at EC80; read-out: IC50 in IL-17RA/IL7RC dimerization assay. As for the experimental part: The peptides of Table 7 were tested for their ability to inhibit the binding of IL-17A to its receptor and the subsequent interaction of IL-17RA and IL17RC.
Interleukin receptor RA and RC dimerization assay (DiscoverX) was used to measure the interaction of the receptor chains IL-17RA and IL17RC upon activation by IL-17A in the absence or presence of the peptides of Table 7.
In the PathHunter® Cytokine Receptor Assay, one cytokine receptor chain is tagged with a small peptide epitope ProLink (PK) and the other chain is tagged with Enzyme Acceptor (EA). Ligand binding induces dimerization of the two receptors, facilitating complementation of PK and EA fragments. This interaction generates an active unit of b-galactosidase, which is detected using a chemiluminescent substrate. PathHunter cell lines were expanded from freezer stocks according to standard procedures. Cells were seeded in a total volume of 20 μL into white walled, 384-well microplates and incubated for the appropriate time prior to testing. For agonist activity inhibition, cells were incubated with sample to induce response. Intermediate dilution of sample stocks was performed to generate 5× sample in assay buffer. 5 μL of 5× sample was added to cells and incubated at 37° C. or room temperature for 60 minutes. Vehicle concentration was 1%. 5 μL of 6×EC80 agonist (IL-17A) in assay buffer was added to the cells and incubated at 37° C. for 6 to 16 hours depending on the assay. 1. […] For some assays, activity was detected using a high sensitivity detection reagent (PathHunter Flash Kit) to improve assay performance. In these assays, an equal volume of detection reagent (25 or 30 uL) was added to the wells, followed by a one hour incubation at room temperature. Microplates were read following signal generation with a PerkinElmer Envision™ instrument for chemiluminescent signal detection. Compound activity was analyzed using CBIS data analysis suite (ChemInnovation, CA). % Inhibition=100%×(1−(mean RLU of test sample−mean RLU of vehicle control)/(mean RLU of EC80 control−mean RLU of vehicle control)).

SMILES strings stand for the structures. Residues, ends and D or L forms follow the SMILES beside them. Some results are limits rather than exact numbers.

Sequence of IL-17RA/IL17RC dimerization induced by IL-17A (Q16552 24-155): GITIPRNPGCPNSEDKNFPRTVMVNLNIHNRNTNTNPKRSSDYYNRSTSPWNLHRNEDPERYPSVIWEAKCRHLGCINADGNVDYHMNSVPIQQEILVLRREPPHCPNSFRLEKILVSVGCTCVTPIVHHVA

As to `CC(=O)N[C@H](C(=O)N[C@@H](Cc1c[nH]cn1)C(=O)N[C@@H](Cc1ccccc1)C(=O)N[C@H](C(=O)N[C@@H](Cc1ccccc1)C(=O)N1CCC[C@H]1C(=O)N[C@@H](CCC(N)=O)C(=O)N[C@@H](CC(=O)O)C(=O)N[C@@H](CC(C)C)C(=O)N[C@@H](Cc1c[nH]c2ccccc12)C(=O)N[C@@H](CCC(=O)O)C(=O)N[C@@H](Cc1c[nH]c2ccccc12)C(=O)N[C@@H](Cc1ccccc1)C(=O)N[C@@H](CCCNC(=N)N)C(=O)N[C@@H](CCCNC(=N)N)C(N)=O)[C@@H](C)O)C(C)C` [SEQ ID NO: 129] (Ac-VHFTFPQDLWEWFRR-NH2), the IC50 is below 500 nM.

Consider `CC(=O)N[C@H](C(=O)N[C@@H](Cc1c[nH]cn1)C(=O)N[C@@H](Cc1ccccc1)C(=O)N[C@@H](CCC(N)=O)C(=O)N[C@@H](Cc1ccccc1)C(=O)N1CCC[C@H]1C(=O)N[C@@H](C)C(=O)N[C@@H](CC(=O)O)C(=O)N[C@@H](CC(C)C)C(=O)N[C@@H](Cc1c[nH]c2ccccc12)C(=O)N[C@@H](CCC(=O)O)C(=O)N[C@@H](Cc1c[nH]c2ccccc12)C(=O)N[C@H](C(=O)N[C@@H](CCCNC(=N)N)C(=O)N[C@@H](CCCNC(=N)N)C(N)=O)C(C)C)C(C)C` [SEQ ID NO: 130] (Ac-VHFQFPADLWEWVRR-NH2), for which the IC50 was below 500 nM.

Regarding `CC(=O)N[C@H](C(=O)N[C@@H](Cc1c[nH]cn1)C(=O)N[C@@H](Cc1ccccc1)C(=O)N[C@@H](CCC(N)=O)C(=O)N[C@@H](Cc1ccccc1)C(=O)N1CCC[C@H]1C(=O)N[C@@H](C)C(=O)N[C@@H](CC(=O)O)C(=O)N[C@@H](Cc1ccccc1)C(=O)N[C@@H](Cc1c[nH]c2ccccc12)C(=O)N[C@@H](CCC(=O)O)C(=O)N[C@@H](Cc1c[nH]c2ccccc12)C(=O)N[C@H](C(=O)N[C@@H](CCCNC(=N)N)C(=O)N[C@@H](CCCNC(=N)N)C(N)=O)C(C)C)C(C)C` [SEQ ID NO: 131] (Ac-VHFQFPADFWEWVRR-NH2), the IC50 is below 500 nM.

With `CC(=O)N[C@H](C(=O)N[C@@H](Cc1c[nH]cn1)C(=O)N[C@@H](Cc1ccccc1)C(=O)N[C@@H](CCC(N)=O)C(=O)N[C@@H](Cc1ccccc1)C(=O)N1CCC[C@H]1C(=O)N[C@@H](C)C(=O)N[C@@H](CC(=O)O)C(=O)N[C@@H](CC(C)C)C(=O)N[C@@H](Cc1ccc(O)cc1)C(=O)N[C@@H](CCC(=O)O)C(=O)N[C@@H](Cc1c[nH]c2ccccc12)C(=O)N[C@H](C(=O)N[C@@H](CCCNC(=N)N)C(=O)N[C@@H](CCCNC(=N)N)C(N)=O)C(C)C)C(C)C` [SEQ ID NO: 132] (Ac-VHFQFPADLYEWVRR-NH2), the IC50 was below 500 nM.

As for `CC(=O)N[C@H](C(=O)N[C@@H](Cc1c[nH]cn1)C(=O)N[C@@H](Cc1ccccc1)C(=O)N[C@@H](CCC(N)=O)C(=O)N[C@@H](Cc1ccccc1)C(=O)N1CCC[C@H]1C(=O)N[C@@H](C)C(=O)N[C@@H](CC(=O)O)C(=O)N[C@@H](CC(C)C)C(=O)N[C@@H](Cc1c[nH]c2ccccc12)C(=O)N[C@@H](CC(N)=O)C(=O)N[C@@H](Cc1c[nH]c2ccccc12)C(=O)N[C@H](C(=O)N[C@@H](CCCNC(=N)N)C(=O)N[C@@H](CCCNC(=N)N)C(N)=O)C(C)C)C(C)C` [SEQ ID NO: 133] (Ac-VHFQFPADLWNWVRR-NH2), the IC50 was below 500 nM.

For the molecule `CC(=O)N[C@H](C(=O)N[C@@H](Cc1c[nH]cn1)C(=O)N[C@@H](Cc1ccccc1)C(=O)N[C@@H](CCC(N)=O)C(=O)N[C@@H](Cc1ccccc1)C(=O)N1CCC[C@H]1C(=O)N[C@@H](C)C(=O)N[C@@H](CC(=O)O)C(=O)N[C@@H](CC(C)C)C(=O)N[C@@H](Cc1c[nH]c2ccccc12)C(=O)N[C@@H](CCC(=O)O)C(=O)N[C@@H](Cc1ccccc1)C(=O)N[C@H](C(=O)N[C@@H](CCCNC(=N)N)C(=O)N[C@@H](CCCNC(=N)N)C(N)=O)C(C)C)C(C)C` [SEQ ID NO: 134] (Ac-VHFQFPADLWEFVRR-NH2), the IC50 was below 500 nM.

As to `CC(=O)N[C@H](C(=O)N[C@@H](Cc1c[nH]cn1)C(=O)N[C@@H](Cc1ccccc1)C(=O)N[C@@H](CCC(N)=O)C(=O)N[C@@H](Cc1ccccc1)C(=O)N1CCC[C@H]1C(=O)N[C@@H](C)C(=O)N[C@@H](CC(=O)O)C(=O)N[C@@H](CC(C)C)C(=O)N[C@@H](Cc1c[nH]c2ccccc12)C(=O)N[C@@H](CCC(=O)O)C(=O)N[C@@H](Cc1c[nH]c2ccccc12)C(=O)N[C@@H](Cc1ccccc1)C(=O)N[C@@H](CCCNC(=N)N)C(=O)N[C@@H](CCCNC(=N)N)C(N)=O)C(C)C` [SEQ ID NO: 135] (Ac-VHFQFPADLWEWFRR-NH2), the IC50 was below 500 nM.

Regarding `CC(=O)N[C@H](C(=O)N[C@@H](Cc1c[nH]cn1)C(=O)N[C@@H](Cc1ccccc1)C(=O)N[C@@H](CCC(N)=O)C(=O)N[C@@H](Cc1ccccc1)C(=O)N1CCC[C@H]1C(=O)N[C@@H](CCC(N)=O)C(=O)N[C@@H](CC(=O)O)C(=O)N[C@@H](Cc1c[nH]c2ccccc12)C(=O)N[C@@H](Cc1c[nH]c2ccccc12)C(=O)N[C@@H](CCC(=O)O)C(=O)N[C@@H](Cc1c[nH]c2ccccc12)C(=O)N[C@H](C(=O)N[C@@H](CCCNC(=N)N)C(=O)N[C@@H](CCCNC(=N)N)C(N)=O)C(C)C)C(C)C` [SEQ ID NO: 136] (Ac-VHFQFPQDWWEWVRR-NH2), the IC50 was below 500 nM.

For the molecule `CC[C@H](C)[C@H](NC(=O)[C@H](CCC(N)=O)NC(=O)[C@H](Cc1ccccc1)NC(=O)[C@H](Cc1c[nH]cn1)NC(=O)[C@@H](NC(C)=O)C(C)C)C(=O)N1CCC[C@H]1C(=O)N[C@@H](CCC(N)=O)C(=O)N[C@@H](CC(=O)O)C(=O)N[C@@H](Cc1c[nH]c2ccccc12)C(=O)N[C@@H](Cc1c[nH]c2ccccc12)C(=O)N[C@@H](CCC(=O)O)C(=O)N[C@@H](Cc1c[nH]c2ccccc12)C(=O)N[C@H](C(=O)N[C@@H](CCCNC(=N)N)C(=O)N[C@@H](CCCNC(=N)N)C(N)=O)C(C)C` [SEQ ID NO: 137] (Ac-VHFQIPQDWWEWVRR-NH2), the IC50 is below 500 nM.

For `CC(=O)N[C@H](C(=O)N[C@@H](Cc1c[nH]cn1)C(=O)N[C@@H](Cc1ccccc1)C(=O)N[C@@H](CCC(N)=O)C(=O)N[C@@H](Cc1ccccc1)C(=O)N1CCC[C@H]1C(=O)N[C@@H](CCC(N)=O)C(=O)N[C@@H](CC(=O)O)C(=O)N[C@@H](Cc1c[nH]c2ccccc12)C(=O)N[C@@H](Cc1ccc(O)cc1)C(=O)N[C@@H](CCC(=O)O)C(=O)N[C@@H](Cc1c[nH]c2ccccc12)C(=O)N[C@H](C(=O)N[C@@H](CCCNC(=N)N)C(=O)N[C@@H](CCCNC(=N)N)C(N)=O)C(C)C)C(C)C` [SEQ ID NO: 138] (Ac-VHFQFPQDWYEWVRR-NH2), the IC50 was below 500 nM.

For `CC(=O)N[C@H](C(=O)N[C@@H](Cc1c[nH]cn1)C(=O)N[C@@H](Cc1ccccc1)C(=O)N[C@@H](CCC(N)=O)C(=O)N[C@@H](Cc1ccccc1)C(=O)N1CCC[C@H]1C(=O)N[C@@H](CCC(N)=O)C(=O)N[C@@H](CC(=O)O)C(=O)N[C@@H](Cc1c[nH]c2ccccc12)C(=O)N[C@@H](Cc1c[nH]c2ccccc12)C(=O)N[C@@H](CC(N)=O)C(=O)N[C@@H](Cc1c[nH]c2ccccc12)C(=O)N[C@H](C(=O)N[C@@H](CCCNC(=N)N)C(=O)N[C@@H](CCCNC(=N)N)C(N)=O)C(C)C)C(C)C` [SEQ ID NO: 139] (Ac-VHFQFPQDWWNWVRR-NH2), the IC50 is below 500 nM.

Consider `CC(=O)N[C@H](C(=O)N[C@@H](Cc1c[nH]cn1)C(=O)N[C@@H](Cc1ccccc1)C(=O)N[C@@H](CCC(N)=O)C(=O)N[C@@H](Cc1ccccc1)C(=O)N1CCC[C@H]1C(=O)N[C@@H](CCC(N)=O)C(=O)N[C@@H](CC(=O)O)C(=O)N[C@@H](CC(C)C)C(=O)N[C@@H](Cc1c[nH]c2ccccc12)C(=O)N[C@@H](CCC(=O)O)C(=O)N[C@@H](Cc1ccccc1)C(=O)N[C@H](C(=O)N[C@@H](CCCNC(=N)N)C(=O)N[C@@H](CCCNC(=N)N)C(N)=O)C(C)C)C(C)C` [SEQ ID NO: 140] (Ac-VHFQFPQDLWEFVRR-NH2), for which the IC50 is below 500 nM.

`CC(=O)N[C@H](C(=O)N[C@@H](Cc1c[nH]cn1)C(=O)N[C@@H](Cc1ccccc1)C(=O)N[C@@H](CCC(N)=O)C(=O)N[C@@H](Cc1ccccc1)C(=O)N1CCC[C@H]1C(=O)N[C@@H](CCC(N)=O)C(=O)N[C@@H](CC(=O)O)C(=O)N[C@@H](Cc1c[nH]c2ccccc12)C(=O)N[C@@H](Cc1c[nH]c2ccccc12)C(=O)N[C@@H](CCC(=O)O)C(=O)N[C@@H](Cc1c[nH]c2ccccc12)C(=O)N[C@@H](Cc1ccccc1)C(=O)N[C@@H](CCCNC(=N)N)C(=O)N[C@@H](CCCNC(=N)N)C(N)=O)C(C)C` [SEQ ID NO: 141] (Ac-VHFQFPQDWWEWFRR-NH2): the IC50 was below 500 nM.

On to `CC[C@H](C)[C@H](NC(=O)[C@@H](NC(=O)[C@H](Cc1ccccc1)NC(=O)[C@H](Cc1c[nH]cn1)NC(=O)[C@@H](NC(C)=O)C(C)C)[C@@H](C)O)C(=O)N1CCC[C@H]1C(=O)N[C@@H](C)C(=O)N[C@@H](CC(=O)O)C(=O)N[C@@H](Cc1ccccc1)C(=O)N[C@@H](Cc1c[nH]c2ccccc12)C(=O)N[C@@H](CCC(=O)O)C(=O)N[C@@H](Cc1c[nH]c2ccccc12)C(=O)N[C@@H](Cc1ccccc1)C(=O)N[C@@H](CCCNC(=N)N)C(=O)N[C@@H](CCCNC(=N)N)C(N)=O` [SEQ ID NO: 142] (Ac-VHFTIPADFWEWFRR-NH2), for which the IC50 is below 500 nM.
